Target: Mushroom-derived tyrosinase
Test: Inhibitory effect on tyrosinase activity (mushroom tyrosinase, L-tyrosine substrate, absorbance at 490 nm)
Assay type: biochemical
Details: for IC50: mushroom tyrosinase, 1.5 mM L-tyrosine, pH 6.5, 37° C. for 20 minutes, absorbance at 490 nm, read-out: Inhibition of tyrosinase activity (IC50); for inhibitory effect on tyrosinase activity (in words): at a concentration of 200 μM or less
Experimental: In order to investigate the tyrosinase activity inhibitory effect of the salicylic acid derivatives prepared in Examples 1 to 6, the following experiment was conducted. Mushroom-derived tyrosinase and tyrosine were purchased from Sigma Chemical. Each sample was treated with 150 microliters of 0.1 M phosphate buffer (pH 6.5), 8 microliters of mushroom tyrosinase (2,100 units/ml, 0.05 M phosphate buffer, pH 6.5) and 36 microliters of 1.5 mM L-tyrosine by concentration. After the enzymatic reaction was carried out at 37° C. for 20 minutes, the activity of tyrosinase was measured by measuring the absorbance at 490 nm using a microplate reader (Bio-Rad 3550, Richmond, Calif., U.S.A.). The inhibitory effect of tyrosinase of the salicylic acid derivatives prepared in Examples 1 to 6 was determined based on the following Equation (1). Tyrosinase inhibition ratio (%)=100−((Reaction absorbance of each sample/reaction absorbance of the control group)×100) [Equation 1] The concentration of each test substance which decreased the activity of tyrosinase by 50% was determined by the above Equation, and the obtained results are shown in Table 1.

| Structure (SMILES) | IC50 [µM] | inhibitory effect on tyrosinase activity (in words) |
| --- | --- | --- |
| Cc1ccc(C(=O)OCc2cc(=O)c(O)co2)c(O)c1 [Compound of Example 2, 2-hydroxy-4-methyl-benzoic acid 5-hydroxy-4-oxo-4H-pyran-2-ylmethyl ester] | 1.51 |  |
| COc1cccc(C(=O)O)c1O [3-Methoxysalicylic acid, reference compound] | > 200 | do not exhibit the inhibitory effect |
| Cc1ccc(O)c(C(=O)OCc2cc(=O)c(O)co2)c1 [Compound of Example 3, 2-hydroxy-5-methyl-benzoic acid 5-hydroxy-4-oxo-4H-pyran-2-ylmethyl ester] | 5.3 |  |
| Cc1cccc(C(=O)OCc2cc(=O)c(O)co2)c1O [Compound of Example 1, 2-hydroxy-3-methyl-benzoic acid 5-hydroxy-4-oxo-4H-pyran-2-ylmethyl ester] | 3.2 |  |
| COc1cccc(C(=O)OCc2cc(=O)c(O)co2)c1O [Compound of Example 4, 2-hydroxy-3-methoxy-benzoic acid 5-hydroxy-4-oxo-4H-pyran-2-ylmethyl ester] | 4.21 |  |
| O=c1cc(CO)occ1O [Kojic acid, reference compound] | 41 |  |
| COc1ccc(C(=O)OCc2cc(=O)c(O)co2)c(O)c1 [Compound of Example 5, 2-hydroxy-4-methoxy-benzoic acid 5-hydroxy-4-oxo-4H-pyran-2-ylmethyl ester] | 4.2 |  |
| COc1ccc(O)c(C(=O)OCc2cc(=O)c(O)co2)c1 [Compound of Example 6, 2-Hydroxy-5-methoxy-benzoic acid 5-hydroxy-4-oxo-4H-pyran-2-ylmethyl ester] | 3.29 |  |
| Cc1cccc(C(=O)O)c1O [3-Methylsalicylic acid, reference compound] | > 200 | do not exhibit the inhibitory effect |
